For one assay, the target named is JAK2 (Homo sapiens (Human), UniProt O60674). The assay can be described thus: JAK2 enzyme assay (Z'-LYTE). It is filed as biochemical. The settings on record: 25 μM ATP; mean of at least 2 experiments; read-out: JAK2 enz pIC50 (converted).
The target in the next assay is AURKB (Aurora B) (Homo sapiens (Human), UniProt Q96GD4). Put plainly: Aurora-B enzyme assay (Z'-LYTE). It is filed as biochemical. The settings on record: 75 μM ATP; mean of at least 2 experiments; read-out: AurB enz pIC50 (converted).
AURKB (Aurora B), sequence (Q96GD4 whole entry): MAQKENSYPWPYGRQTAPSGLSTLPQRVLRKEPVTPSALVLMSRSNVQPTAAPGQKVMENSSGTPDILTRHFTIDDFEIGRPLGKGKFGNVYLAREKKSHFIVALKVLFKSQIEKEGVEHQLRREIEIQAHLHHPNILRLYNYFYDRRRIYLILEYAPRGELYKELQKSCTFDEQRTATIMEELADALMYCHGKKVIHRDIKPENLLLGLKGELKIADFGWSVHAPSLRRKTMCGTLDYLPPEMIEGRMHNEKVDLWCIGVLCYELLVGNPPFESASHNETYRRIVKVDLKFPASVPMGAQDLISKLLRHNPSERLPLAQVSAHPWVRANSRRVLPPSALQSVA
The target of the next assay is JAK1 (Homo sapiens (Human), UniProt P23458). The assay can be described thus: JAK1 enzyme assay (Z'-LYTE). The settings on record: 75 μM ATP; mean of at least 2 experiments; read-out: JAK1 enz pIC50 (converted). The class given is biochemical.
JAK1, sequence (P23458 whole entry): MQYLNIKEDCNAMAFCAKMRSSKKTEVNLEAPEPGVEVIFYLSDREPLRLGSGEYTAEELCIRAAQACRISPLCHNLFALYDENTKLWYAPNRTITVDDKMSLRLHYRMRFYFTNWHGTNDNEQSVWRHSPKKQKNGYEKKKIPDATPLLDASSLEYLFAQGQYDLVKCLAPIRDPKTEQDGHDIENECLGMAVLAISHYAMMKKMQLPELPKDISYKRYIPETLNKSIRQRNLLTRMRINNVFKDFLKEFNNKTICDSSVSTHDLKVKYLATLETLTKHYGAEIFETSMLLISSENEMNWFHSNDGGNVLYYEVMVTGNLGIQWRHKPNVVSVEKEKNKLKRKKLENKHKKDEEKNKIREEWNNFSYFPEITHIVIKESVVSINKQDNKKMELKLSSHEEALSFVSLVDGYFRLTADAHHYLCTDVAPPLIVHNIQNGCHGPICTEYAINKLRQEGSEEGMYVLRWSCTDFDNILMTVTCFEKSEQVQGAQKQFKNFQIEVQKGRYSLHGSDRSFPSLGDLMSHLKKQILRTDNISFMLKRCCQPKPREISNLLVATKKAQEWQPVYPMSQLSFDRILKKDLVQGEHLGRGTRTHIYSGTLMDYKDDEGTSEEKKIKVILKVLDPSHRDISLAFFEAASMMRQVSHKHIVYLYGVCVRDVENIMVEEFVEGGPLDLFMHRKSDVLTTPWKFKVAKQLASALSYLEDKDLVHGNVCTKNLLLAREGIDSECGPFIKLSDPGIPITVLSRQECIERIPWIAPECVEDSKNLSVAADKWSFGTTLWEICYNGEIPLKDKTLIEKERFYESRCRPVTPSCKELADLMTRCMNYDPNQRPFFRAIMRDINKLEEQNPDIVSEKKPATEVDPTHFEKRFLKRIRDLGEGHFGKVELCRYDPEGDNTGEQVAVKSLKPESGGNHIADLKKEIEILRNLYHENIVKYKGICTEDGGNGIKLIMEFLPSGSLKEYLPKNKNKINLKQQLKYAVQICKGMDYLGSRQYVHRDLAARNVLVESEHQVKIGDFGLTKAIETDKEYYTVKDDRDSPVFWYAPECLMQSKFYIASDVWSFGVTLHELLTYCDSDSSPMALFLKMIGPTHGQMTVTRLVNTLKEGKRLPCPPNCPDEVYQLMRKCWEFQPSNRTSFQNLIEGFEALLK
The next assay addresses TTK (Homo sapiens (Human), UniProt P33981). Put plainly: TTK enzyme assay (LanthaScreen Eu Kinase Binding assay). The settings on record: mean of at least 2 experiments. From the text: The LanthaScreen® Eu Kinase Binding assay format uses binding of an Alexa Fluor® conjugate or “tracer” to a kinase, which is detected by addition of a Eu-labeled anti-tag antibody. […] The degree of FRET measured in the assay is used to determine the binding of a compound.
Plates were then read using a fluorescence plate reader.
(In general: Time-resolved FRET reads energy transfer from a long-lived donor to a nearby acceptor.)

For the next assay, the target named is AURKA (Aurora A) (Homo sapiens (Human), UniProt O14965). The assay can be described thus: Aurora-A enzyme assay (Z'-LYTE). It is filed as biochemical. To be noted: 10 μM ATP; mean of at least 2 experiments; read-out: AurA enz pIC50 (converted).
AURKA (Aurora A), sequence (O14965 whole entry): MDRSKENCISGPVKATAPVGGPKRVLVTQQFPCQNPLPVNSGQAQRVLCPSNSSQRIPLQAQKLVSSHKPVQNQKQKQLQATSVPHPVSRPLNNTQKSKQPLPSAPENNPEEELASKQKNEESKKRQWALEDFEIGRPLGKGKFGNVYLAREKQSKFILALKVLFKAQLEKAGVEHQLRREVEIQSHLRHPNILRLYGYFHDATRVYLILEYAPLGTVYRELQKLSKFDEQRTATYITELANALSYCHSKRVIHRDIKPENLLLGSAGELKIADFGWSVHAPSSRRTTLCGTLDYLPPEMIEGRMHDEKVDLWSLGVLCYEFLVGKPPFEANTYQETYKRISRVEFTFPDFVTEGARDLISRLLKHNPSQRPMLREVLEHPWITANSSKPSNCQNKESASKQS
Another assay deals with JAK3 (Homo sapiens (Human), UniProt P52333). Put plainly: JAK3 enzyme assay (Z'-LYTE). The class given is biochemical. The settings on record: 10 μM ATP; mean of at least 2 experiments; read-out: JAK3 enz pIC50 (converted). From the text: The 2× AURKB (Aurora B)/Ser/[…]
JAK3, sequence (P52333 whole entry): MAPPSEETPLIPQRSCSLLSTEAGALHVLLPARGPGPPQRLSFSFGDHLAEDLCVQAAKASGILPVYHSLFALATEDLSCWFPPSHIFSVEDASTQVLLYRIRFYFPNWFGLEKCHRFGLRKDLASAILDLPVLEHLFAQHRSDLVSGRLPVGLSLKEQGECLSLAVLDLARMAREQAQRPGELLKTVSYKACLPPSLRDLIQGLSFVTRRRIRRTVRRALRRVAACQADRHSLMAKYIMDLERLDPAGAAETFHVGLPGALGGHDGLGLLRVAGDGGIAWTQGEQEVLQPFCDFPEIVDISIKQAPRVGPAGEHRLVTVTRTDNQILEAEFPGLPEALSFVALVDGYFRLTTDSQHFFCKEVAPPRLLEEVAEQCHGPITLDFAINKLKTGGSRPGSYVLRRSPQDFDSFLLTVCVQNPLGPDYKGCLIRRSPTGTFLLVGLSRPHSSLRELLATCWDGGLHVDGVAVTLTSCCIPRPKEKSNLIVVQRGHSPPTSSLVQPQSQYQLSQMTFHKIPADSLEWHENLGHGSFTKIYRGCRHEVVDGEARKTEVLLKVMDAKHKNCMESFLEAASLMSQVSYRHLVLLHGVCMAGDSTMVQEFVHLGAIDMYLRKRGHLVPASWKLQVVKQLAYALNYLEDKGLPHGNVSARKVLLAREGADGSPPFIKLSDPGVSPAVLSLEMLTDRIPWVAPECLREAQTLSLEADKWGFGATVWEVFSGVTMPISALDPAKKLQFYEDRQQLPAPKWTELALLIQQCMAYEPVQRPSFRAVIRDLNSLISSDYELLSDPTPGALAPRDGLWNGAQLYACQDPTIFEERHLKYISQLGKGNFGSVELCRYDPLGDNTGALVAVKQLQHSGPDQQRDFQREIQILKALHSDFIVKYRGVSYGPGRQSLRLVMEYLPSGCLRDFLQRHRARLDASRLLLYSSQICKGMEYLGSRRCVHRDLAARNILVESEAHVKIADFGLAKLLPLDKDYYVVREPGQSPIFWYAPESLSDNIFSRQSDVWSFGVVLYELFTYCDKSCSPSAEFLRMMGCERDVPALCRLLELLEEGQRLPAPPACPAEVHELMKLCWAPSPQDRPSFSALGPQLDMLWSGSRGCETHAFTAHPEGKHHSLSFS
In assay [1] the target is T1, DNAPK (Homo sapiens (Human), UniProt P78527). Put plainly: DNAPK cellular potency assay (DNA-PK cell), pS2056-DNAPK ELISA in irradiated A549 cells. The class given is cell-based. The settings on record: A549 cell line, 8 Gy radiation, mean of at least 2 experiments, read-out: DNA-PK cell pIC50 (converted).
Assay [2] has as its target T1, DNAPK. The class given is biochemical. To be noted: mean of at least 2 experiments; 18 μM ATP; read-out: DNA-PK enz pIC50 (converted). The text has this: The following assays were used to measure the effects of the compounds described herein: a) DNAPK enzyme potency assay; b) DNAPK cellular potency assay. During the description of the assays, generally: • i. The following abbreviations have been used; DMSO=Dimethyl Sulphoxide; DTT=Dithiothreitol; EDTA=Ethylenediaminetetraacetic Acid, TR-FRET=Time Resolved Fluorescence Resonance Energy Transfer, ATP=Adenosine triphosphate, DTT=Dithiothreitol, DNA=Deoxyribonucleic acid, HEPES=(2-hydroxyethyl)-1-piperazineethanesulfonic acid • ii.

The record followed here is patent publication US10407446B2, “Amino-triazolopyridine compounds and their use in treating cancer” (AstraZeneca AB, priority 2016, dated 2019).

Like-named read-outs stand apart in the source and are kept apart here.

JAK2, sequence (O60674 whole entry): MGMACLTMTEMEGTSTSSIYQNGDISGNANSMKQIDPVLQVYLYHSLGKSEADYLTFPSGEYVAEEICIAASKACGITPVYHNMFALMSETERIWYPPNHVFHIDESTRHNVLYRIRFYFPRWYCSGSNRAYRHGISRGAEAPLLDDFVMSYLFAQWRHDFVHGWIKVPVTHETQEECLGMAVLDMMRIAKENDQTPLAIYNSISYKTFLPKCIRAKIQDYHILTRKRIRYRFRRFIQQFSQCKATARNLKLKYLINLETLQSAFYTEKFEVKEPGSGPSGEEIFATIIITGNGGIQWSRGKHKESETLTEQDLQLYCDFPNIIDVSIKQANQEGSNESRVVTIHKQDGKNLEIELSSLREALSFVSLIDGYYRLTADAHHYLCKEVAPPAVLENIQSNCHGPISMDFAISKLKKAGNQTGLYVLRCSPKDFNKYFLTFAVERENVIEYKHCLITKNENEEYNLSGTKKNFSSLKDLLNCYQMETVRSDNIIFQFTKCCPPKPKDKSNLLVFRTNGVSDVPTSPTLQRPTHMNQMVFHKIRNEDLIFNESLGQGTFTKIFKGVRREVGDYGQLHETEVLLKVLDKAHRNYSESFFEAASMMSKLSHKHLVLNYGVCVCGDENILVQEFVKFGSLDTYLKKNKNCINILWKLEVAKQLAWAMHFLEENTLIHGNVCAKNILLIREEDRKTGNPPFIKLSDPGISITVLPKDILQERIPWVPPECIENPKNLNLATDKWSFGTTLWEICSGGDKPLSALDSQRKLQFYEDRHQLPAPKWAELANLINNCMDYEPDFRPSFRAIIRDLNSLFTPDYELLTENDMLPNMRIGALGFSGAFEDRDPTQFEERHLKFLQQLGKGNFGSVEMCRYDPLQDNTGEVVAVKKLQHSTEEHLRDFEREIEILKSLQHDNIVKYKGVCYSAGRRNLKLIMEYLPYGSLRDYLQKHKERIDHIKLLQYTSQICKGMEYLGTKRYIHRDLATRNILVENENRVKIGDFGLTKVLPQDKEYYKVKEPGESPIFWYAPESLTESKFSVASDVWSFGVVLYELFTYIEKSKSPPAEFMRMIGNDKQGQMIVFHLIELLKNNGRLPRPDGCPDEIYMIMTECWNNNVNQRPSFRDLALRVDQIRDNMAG
TTK, sequence (P33981 whole entry): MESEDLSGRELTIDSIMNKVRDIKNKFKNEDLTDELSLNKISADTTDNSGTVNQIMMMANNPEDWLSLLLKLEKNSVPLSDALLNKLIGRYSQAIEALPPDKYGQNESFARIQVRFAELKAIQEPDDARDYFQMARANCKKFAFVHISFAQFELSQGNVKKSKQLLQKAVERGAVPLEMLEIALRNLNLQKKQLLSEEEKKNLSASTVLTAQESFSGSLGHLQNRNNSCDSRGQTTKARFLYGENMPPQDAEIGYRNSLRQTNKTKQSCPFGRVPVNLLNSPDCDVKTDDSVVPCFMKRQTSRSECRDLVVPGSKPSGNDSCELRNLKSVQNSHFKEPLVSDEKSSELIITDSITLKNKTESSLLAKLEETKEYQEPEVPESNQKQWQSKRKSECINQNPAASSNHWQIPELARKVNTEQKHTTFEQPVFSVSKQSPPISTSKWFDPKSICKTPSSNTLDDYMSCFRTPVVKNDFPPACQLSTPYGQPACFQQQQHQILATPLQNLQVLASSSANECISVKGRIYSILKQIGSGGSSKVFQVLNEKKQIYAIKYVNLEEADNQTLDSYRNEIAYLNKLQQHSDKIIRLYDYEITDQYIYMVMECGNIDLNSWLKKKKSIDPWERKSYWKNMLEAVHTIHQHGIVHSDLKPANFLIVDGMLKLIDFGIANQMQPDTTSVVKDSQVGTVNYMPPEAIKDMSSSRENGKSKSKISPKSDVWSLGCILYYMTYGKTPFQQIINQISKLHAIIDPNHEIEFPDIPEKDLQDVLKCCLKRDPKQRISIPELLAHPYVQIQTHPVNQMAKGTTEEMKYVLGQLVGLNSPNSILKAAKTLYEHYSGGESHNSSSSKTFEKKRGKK
Protocol for AURKA (Aurora A): (§1) d) Aurora-A, Aurora-B, JAK1, JAK2, JAK3 Enzyme Assays
(§2) The inhibitory activity of compounds against AURKA, AURKB, JAK1, JAK2 and JAK3 was determined in Z′-LYTE® assays run by ThermoFisher Scientific as part of their SelectScreen® Biochemical Kinase Profiling Service. The Z′-LYTE® biochemical assay format employs a fluorescence-based, coupled-enzyme format and is based on the differential sensitivity of phosphorylated and non-phosphorylated peptides to proteolytic cleavage. The peptide substrate is labeled with two fluorophores—one at each end—that make up a FRET pair. In the primary reaction, the kinase transfers the gamma-phosphate of ATP to a single tyrosine, serine or threonine residue in a synthetic FRET-peptide. In the secondary reaction, a site-specific protease recognises and cleaves non-phosphorylated FRET-peptides. Phosphorylation of FRET-peptides suppresses cleavage by the Development Reagent. Cleavage disrupts FRET between the donor (i.e., coumarin) and acceptor (i.e., fluorescein) fluorophores on the FRET-peptide, whereas uncleaved, phosphorylated FRET-peptides maintain FRET. A ratiometric method, which calculates the ratio (the Emission Ratio) of donor emission to acceptor emission after excitation of the donor fluorophore at 400 nm, is used to quantitate reaction progress. Both cleaved and uncleaved FRET-peptides contribute to the fluorescence signals and therefore to the Emission Ratio. The extent of phosphorylation of the FRET-peptide can be calculated from the Emission Ratio.
(§3) 2.4 μL Kinase Buffer (50 mM HEPES pH 7.5, 0.01% BRIJ-35, 10 mM MgCl2, 1 mM EGTA), 5 μL 2× Peptide/Kinase mixture (detailed below for each kinase) and 2.5 μL 4× ATP Solution (prepared in Kinase Buffer) were added separately to the compound plates, placed on a plate shaker for 30 sec, and then incubated for 60 mins at room temperature. […] Assay plates were placed on a plate shaker for 30 sec, incubated for 60 mins at room temperature, and then read using a fluorescence plate reader.
Protocol for AURKB (Aurora B): as §1, §2, §3
Protocol for JAK1: as §1, §2, §3
Protocol for JAK2: as §1, §2, §3

Consider `Cc1cc2ncnn2cc1Nc1ncc2c(n1)n([C@H]1CC[C@@H](O)CC1)c(=O)n2C` [Example 2, 9-((1s,4s)-4-hydroxycyclohexyl)-7-methyl-2-((7-methyl-[1,2,4]triazolo[1,5-a]pyridin-6-yl)amino)-7,9-dihydro-8H-purin-8-one], for which the IC50 at JAK2, on AURKB (Aurora B), on JAK1, on AURKA (Aurora A) and at JAK3 was greater than 10 µM each time. Besides, the “TTK enz pIC50” value on TTK is 6.1.

Regarding `Cc1cc2ncnn2cc1Nc1ncc2c(n1)n([C@H]1CC[C@](C)(O)CC1)c(=O)n2C` [Example 9, 9-((1r,4r)-4-hydroxy-4-methylcyclohexyl)-7-methyl-2-((7-methyl-[1,2,4]triazolo[1,5-a]pyridin-6-yl)amino)-7,9-dihydro-8H-purin-8-one], the IC50 at JAK2, on AURKB (Aurora B), on JAK1, on AURKA (Aurora A) and on JAK3 was greater than 10 µM throughout.

As for `CO[C@H]1CC[C@@H](n2c(=O)n(C)c3cnc(Nc4cn5ncnc5cc4C)nc32)CC1` [Example 5, 9-((1s,4s)-4-methoxycyclohexyl)-7-methyl-2-((7-methyl-[1,2,4]triazolo[1,5-a]pyridin-6-yl)amino)-7,9-dihydro-8H-purin-8-one], the IC50 at DNAPK [1] is 0.126 µM; on JAK2, greater than 10 µM; at AURKB (Aurora B) it was greater than 10 µM; on DNAPK [2], 0.001 µM; at JAK1 it was greater than 10 µM; on AURKA (Aurora A) it was greater than 10 µM. In addition, the IC50 at JAK3 is greater than 10 µM. The “TTK enz pIC50” value on TTK is given as 5.3.

In the case of `Cc1nc2cc(C)c(Nc3ncc4c(n3)n(C3CCOCC3)c(=O)n4C)cn2n1` [Example 4, 2-((2,7-dimethyl-[1,2,4]triazolo[1,5-a]pyridin-6-yl)amino)-7-methyl-9-(tetrahydro-2H-pyran-4-yl)-7,9-dihydro-8H-purin-8-one], the IC50 at DNAPK [1] is 0.158 µM; on JAK2 it was greater than 10 µM; on AURKB (Aurora B) it was greater than 10 µM; on DNAPK [2], 0.00126 µM; at JAK1 it was greater than 10 µM; at AURKA (Aurora A), greater than 10 µM. Besides, at JAK3, the IC50 was greater than 10 µM. Further, the “TTK enz pIC50” value on TTK is recorded as 5.1.

In the case of `Cc1cc2ncnn2cc1Nc1ncc2c(n1)n(C1CCCCC1)c(=O)n2C` [Example 13, 9-cyclohexyl-7-methyl-2-((7-methyl-[1,2,4]triazolo[1,5-a]pyridin-6-yl)amino)-7,9-dihydro-8H-purin-8-one], the IC50 is greater than 10 µM at JAK2; greater than 10 µM on AURKB (Aurora B); greater than 10 µM at JAK1; 3.98 µM on AURKA (Aurora A); greater than 10 µM on JAK3. Besides, at TTK, the “TTK enz pIC50” value is 6.3.

As for `Cc1cc2ncnn2cc1Nc1ncc2c(n1)n([C@]1(C)CC[C@H](O)CC1)c(=O)n2C` [Example 12, 9-((1s,4s)-4-hydroxy-1-methylcyclohexyl)-7-methyl-2-((7-methyl-[1,2,4]triazolo[1,5-a]pyridin-6-yl)amino)-7,9-dihydro-8H-purin-8-one], the IC50 was 0.0398 µM on DNAPK [1]; greater than 10 µM on JAK2; greater than 10 µM at AURKB (Aurora B); 0.0002 µM on DNAPK [2]; greater than 10 µM on JAK1; greater than 10 µM on AURKA (Aurora A). Further, on JAK3, the IC50 was greater than 10 µM. Besides, at TTK, the “TTK enz pIC50” value was 5.8.

With `Cc1cc2ncnn2cc1Nc1ncc2c(n1)n([C@H]1CCOC1)c(=O)n2C` [Example 11, (S)-7-methyl-2-((7-methyl-[1,2,4]triazolo[1,5-a]pyridin-6-yl)amino)-9-(tetrahydrofuran-3-yl)-7,9-dihydro-8H-purin-8-one], the IC50 was 0.158 µM on DNAPK [1]; greater than 10 µM at JAK2; greater than 10 µM on AURKB (Aurora B); 0.000501 µM on DNAPK [2]; greater than 10 µM on JAK1; greater than 7.94 µM at TTK (read-out: TTK enz pIC50 (converted)). For the same compound, the IC50 on AURKA (Aurora A) and at JAK3 was greater than 10 µM throughout.

As to `Cc1cc2ncnn2cc1Nc1ncc2c(n1)n([C@H]1CC[C@@](C)(O)CC1)c(=O)n2C` [Example 10, 9-((1s,4s)-4-hydroxy-4-methylcyclohexyl)-7-methyl-2-((7-methyl-[1,2,4]triazolo[1,5-a]pyridin-6-yl)amino)-7,9-dihydro-8H-purin-8-one], the IC50 at JAK2, at AURKB (Aurora B), on JAK1, on AURKA (Aurora A) and at JAK3 was greater than 10 µM in each case.

`Cc1cc2ncnn2cc1Nc1ncc2c(n1)n([C@@H]1CCCOC1)c(=O)n2C` [Example 8, (R)-7-methyl-2-((7-methyl-[1,2,4]triazolo[1,5-a]pyridin-6-yl)amino)-9-(tetrahydro-2H-pyran-3-yl)-7,9-dihydro-8H-purin-8-one]: the IC50 at DNAPK [1] is 0.0631 µM; at JAK2, greater than 10 µM; on AURKB (Aurora B), greater than 10 µM; at DNAPK [2], 0.000398 µM; at JAK1, greater than 10 µM; at AURKA (Aurora A), greater than 10 µM. The IC50 on JAK3 is greater than 10 µM. Moreover, the “TTK enz pIC50” value on TTK amounted to 5.2.

Regarding `Cc1cc2ncnn2cc1Nc1ncc2c(n1)n([C@H]1CC[C@H](O)CC1)c(=O)n2C` [Example 1, 9-((1r,4r)-4-hydroxycyclohexyl)-7-methyl-2-((7-methyl-[1,2,4]triazolo[1,5-a]pyridin-6-yl)amino)-7,9-dihydro-8H-purin-8-one], the IC50 on JAK2, at AURKB (Aurora B), at JAK1, on AURKA (Aurora A) and on JAK3 was greater than 10 µM throughout. On TTK, the “TTK enz pIC50” value worked out at 5.5.

For the compound `Cc1cc2ncnn2cc1Nc1ncc2c(n1)n(C1CCOCC1)c(=O)n2C` [Example 3, 7-methyl-2-((7-methyl-[1,2,4]triazolo[1,5-a]pyridin-6-yl)amino)-9-(tetrahydro-2H-pyran-4-yl)-7,9-dihydro-8H-purin-8-one], the IC50 on JAK2, at AURKB (Aurora B), on JAK1, at AURKA (Aurora A) and at JAK3 was greater than 10 µM throughout.

For `Cc1cc2ncnn2cc1Nc1ncc2c(n1)n([C@H]1CCCOC1)c(=O)n2C` [Example 7, (S)-7-methyl-2-((7-methyl-[1,2,4]triazolo[1,5-a]pyridin-6-yl)amino)-9-(tetrahydro-2H-pyran-3-yl)-7,9-dihydro-8H-purin-8-one], the IC50 on DNAPK [1] is 0.0501 µM; on JAK2 it was greater than 10 µM; on AURKB (Aurora B), greater than 10 µM; on DNAPK [2] it was 0.000158 µM; on JAK1, greater than 10 µM; on AURKA (Aurora A), greater than 10 µM. Further, the IC50 on JAK3 was greater than 10 µM. Besides, at TTK, the “TTK enz pIC50” value was 5.2.

As for `CO[C@H]1CC[C@H](n2c(=O)n(C)c3cnc(Nc4cn5ncnc5cc4C)nc32)CC1` [Example 6, 9-((1r,4r)-methoxycyclohexyl)-7-methyl-2-((7-methyl-[1,2,4]triazolo[1,5-a]pyridin-6-yl)amino)-7,9-dihydro-8H-purin-8-one], the IC50 was 0.0398 µM at DNAPK [1]; greater than 10 µM on JAK2; greater than 10 µM on AURKB (Aurora B); 0.000251 µM on DNAPK [2]; greater than 10 µM on JAK1; greater than 10 µM on AURKA (Aurora A). In addition, the IC50 on JAK3 is greater than 10 µM. In addition, the “TTK enz pIC50” value at TTK is on record as 5.9.
